Measured values published in patent US20250186597A1, “TARGETED IMMUNE ACTIVATION WITH IL-18 IMMUNOCYTOKINES” (BRIGHT PEAK THERAPEUTICS AG, priority 2023, published 2025).

Tests used:
Assay type in all cases: cell-based, human
[1] = tested on: parental PD-1negative NK-92 cells; assay: IFN gamma secretion assay in parental PD-1 negative NK-92 cells (Example 17); conditions: IFNγ secretion
Experimental: (§1) To show selectivity of the anti-PD1-IL18 immunocytokine (IC) for PD-1 positive cells, the NK-92 cell line was used to generate a PD-1 expressing cell line and furthermore, to measure IFN[…] release upon incubation with IL-18 variants and ICs.
(§2) On the day of experiment, parental PD-1negative and PD-1positive transduced cells were harvested and washed with PBS 1× and resuspended in medium (w/o IL-2) containing 1 ng/ml of recombinant human Interleukin-12 (SinoBiologicals, Cat #CT011-H08H). After counting, cells were seeded at 100 000 cells/well in a 384 well culture plate and incubated at 37° C./5% CO2. When indicated, cells were preincubated with anti-PD-1 antibody LZM-009 at 17 uM during 30 min at 37° C. […] The lowest concentration assessed was 0.8 fM.
(§3) After 16-20 h incubation at 37° C./5% CO2, 5 μl of supernatant were carefully transferred to a 384 microwell OptiPlate (Perkin Elmer; Cat #6007270) and Interferon-gamma (IFNγ) levels were measured using the Human IFNγ AlphaLISA Assay Kit (Perkin Elmer, Cat #AL217C). […] AlphaLISA signal was then measured on an Enspire plate reader (Perkin Elmer) using 680 and 615 nm as excitation and emission wavelengths respectively. Half maximal effective concentration (EC50) was calculated based on a variable slope, four parameter analysis using GraphPad PRISM software.

[2] = tested on: parental PD-1 negative KG-1 cells; assay: IFN gamma secretion assay in parental PD-1 negative KG-1 cells (Example 11); conditions: IFNγ secretion
Experimental: The KG-1 cell line was used to generate a PD-1 expressing cell line and furthermore, to measure IFNγ release upon incubation with IL-18 variants and corresponding IL-18 immunocytokines.
IFNγ release was assessed in PD-1 positive (transduced) KG-1 cells, as well as in the parental PD-1 negative cells. 0.5×10^5 cells were seeded into a 96-well U-bottom plate in culture media (RPMI, 10% FBS, 1% L-Glutamine) and stimulated with IL-18 variants/ICs for 20-24 h. The test items were diluted to 100 nM in culture medium, followed by 7 10-fold serial dilutions. The lowest concentration assessed was […]. After incubation, IFNγ release was measured using the LEGENDplex custom human mix and match KIT (Biolegend LEGENDplex™ Human IFN-γ Capture Bead B5, 13X #740942, LEGENDplex™ HU Essential Immune Response Panel Detection Abs, #740931, LEGENDplex™ Buffer Set A #740368). To this end, cell culture supernatant was collected and diluted 1:1 with Assay Buffer. Fluorescence measurements were done with a Quanteon Flow Cytometer from Acea Biosciences. For analysis, MFI values (median fluorescence intensity) were exported and plotted against concentrations used. The EC50 values (half maximal effective concentration) were calculated based on a variable slope and four parameter analysis using GraphPad PRISM software version 9.

[3] = tested on: PD-1positive transduced NK-92 cells; assay: IFN gamma secretion assay in PD-1 positive transduced NK-92 cells (Example 17)
Experimental: as §1, §2, §3

- EC50 ([3]; IFNγ secretion): 0.13 nM
- PD-1^neg/PD-1^pos EC50 ratio ([3]; NK-92 cells): 1.4
Substance: SEQ ID NO: 1: Native sequence of human IL-18 (bioactive form) [reference compound]
- EC50 [1]: 0.158 nM
- EC50 [2]: 0.387 nM
